According to patent US9738634B2, “Heterocyclic amide compound and herbicide” (SYNGENTA PARTICIPATIONS AG, priority 2013, dated 2017):

Key:
Format in all cases: in vivo
[1] = test system: redroot pigweed; experiment: Test Example 3: weedkilling efficacy through soil treatment; L: redroot pigweed; details: soil treatment, treatment dosage 320 g/ha
How it was run: (§1)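 Crop and weed responses were judged three weeks after a uniform surface spray of the water-diluted emulsion at the given g/ha rate. Seeds sat beneath about 1.5 cm of sterilized diluvial soil, and boxes stood in a greenhouse at 25 to 30° C.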

[2] = test system: bulrush; experiment: Test Example 2: weedkilling efficacy, growth period weed treatment in the submerged state; B: bulrush
How it was run: (§2)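 First, alluvial soil in pots is flooded to 4 cm and mixed seed is sown. Next, plants grow in a greenhouse at 25 to 30° C until the 1-2 leaf stage. Then diluted emulsion is applied onto the water surface at the given g/ha rate, and injury is assessed after 3 weeks.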

[3] = test system: Indian mallow; experiment: Test Example 3: weedkilling efficacy through soil treatment; K: Indian mallow; details: soil treatment, treatment dosage 320 g/ha
How it was run: as §1

[4] = test system: wheat; experiment: Test Example 3: soil treatment, effect on crop; e: wheat; details: soil treatment, treatment dosage 320 g/ha
How it was run: as §1

[5] = test system: bulrush; experiment: Test Example 1: weedkilling efficacy, preemergent weed treatment in the submerged state; B: bulrush
How it was run: (§3)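 Alluvial soil in Wagner pots flooded to 4 cm; barnyard grass, bulrush and oval-leafed pondweed seeds sown, then 2.5-leaf rice seedlings transplanted. Same day, emulsified compound diluted in water to set g/ha dosages and applied to water surface; greenhouse 25–30 °C, effect scored by criteria after 3 weeks.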

[6] = test system: beet; experiment: Test Example 3: soil treatment, effect on crop; f: beet; details: soil treatment, treatment dosage 320 g/ha
How it was run: as §1

[7] = test system: common wind-grass; experiment: Test Example 3: weedkilling efficacy through soil treatment; J: common wind-grass; details: soil treatment, treatment dosage 320 g/ha
How it was run: as §1

[8] = test system: catchweed; experiment: Test Example 3: weedkilling efficacy through soil treatment; O: catchweed; details: soil treatment, treatment dosage 320 g/ha
How it was run: as §1

[9] = test system: birds-eye speedwell; experiment: Test Example 3: weedkilling efficacy through soil treatment; p: birds-eye speedwell; details: soil treatment, treatment dosage 320 g/ha
How it was run: as §1

[10] = test system: barnyard grass; experiment: Test Example 2: weedkilling efficacy, growth period weed treatment in the submerged state; A: barnyard grass
How it was run: as §2

[11] = test system: green foxtail; experiment: Test Example 3: weedkilling efficacy through soil treatment; E: green foxtail; details: soil treatment, treatment dosage 320 g/ha
How it was run: as §1

[12] = test system: barnyard grass; experiment: Test Example 3: weedkilling efficacy through soil treatment; F: barnyard grass; details: soil treatment, treatment dosage 320 g/ha
How it was run: as §1

[13] = test system: Italian ryegrass; experiment: Test Example 3: weedkilling efficacy through soil treatment; I: Italian ryegrass; details: soil treatment, treatment dosage 320 g/ha
How it was run: as §1

[14] = test system: crabgrass; experiment: Test Example 3: weedkilling efficacy through soil treatment; D: crabgrass; details: soil treatment, treatment dosage 320 g/ha
How it was run: as §1

[15] = test system: corn; experiment: Test Example 3: soil treatment, effect on crop; c: corn; details: soil treatment, treatment dosage 320 g/ha
How it was run: as §1

[16] = test system: chickweed; experiment: Test Example 3: weedkilling efficacy through soil treatment; N: chickweed; details: soil treatment, treatment dosage 320 g/ha
How it was run: as §1

[17] = test system: fig-leafed goosefoot; experiment: Test Example 3: weedkilling efficacy through soil treatment; M: fig-leafed goosefoot; details: soil treatment, treatment dosage 320 g/ha
How it was run: as §1

[18] = test system: directly sown rice; experiment: Test Example 3: soil treatment, effect on crop; b: directly sown rice; details: soil treatment, treatment dosage 320 g/ha
How it was run: as §1

[19] = test system: soybean; experiment: Test Example 3: soil treatment, effect on crop; d: soybean; details: soil treatment, treatment dosage 320 g/ha
How it was run: as §1

[20] = test system: oval-leafed pondweed; experiment: Test Example 1: weedkilling efficacy, preemergent weed treatment in the submerged state; C: oval-leafed pondweed
How it was run: as §3

[21] = test system: oval-leafed pondweed; experiment: Test Example 2: weedkilling efficacy, growth period weed treatment in the submerged state; C: oval-leafed pondweed
How it was run: as §2

[22] = test system: rapeseed; experiment: Test Example 3: soil treatment, effect on crop; g: rapeseed; details: soil treatment, treatment dosage 320 g/ha
How it was run: as §1

[23] = test system: wild oat; experiment: Test Example 3: weedkilling efficacy through soil treatment; G: wild oat; details: soil treatment, treatment dosage 320 g/ha
How it was run: as §1

[24] = test system: black-grass; experiment: Test Example 3: weedkilling efficacy through soil treatment; H: black-grass; details: soil treatment, treatment dosage 320 g/ha
How it was run: as §1

[25] = test system: transplanted rice; experiment: Test Example 1: preemergent weed treatment in the submerged state, effect on crop; a: transplanted rice
How it was run: as §3

[26] = test system: barnyard grass; experiment: Test Example 1: weedkilling efficacy, preemergent weed treatment in the submerged state; A: barnyard grass
How it was run: as §3

Row | Structure (SMILES) | L: redroot pigweed, weedkilling efficacy grade [1] | B (bulrush) weedkilling efficacy grade ([2]; treatment dosage 320 g/ha) | K: Indian mallow, weedkilling efficacy grade [3] | e: wheat, effect on crop grade [4] | f: beet, effect on crop grade [6] | J: common wind-grass, weedkilling efficacy grade [7] | O: catchweed, weedkilling efficacy grade [8] | P: birds-eye speedwell, weedkilling efficacy grade [9] | E: green foxtail, weedkilling efficacy grade [11] | F: barnyard grass, weedkilling efficacy grade [12] | I: Italian ryegrass, weedkilling efficacy grade [13] | D: crabgrass, weedkilling efficacy grade [14] | c: corn, effect on crop grade [15] | N: chickweed, weedkilling efficacy grade [16] | M: fig-leafed goosefoot, weedkilling efficacy grade [17] | b: directly sown rice, effect on crop grade [18] | d: soybean, effect on crop grade [19] | g: rapeseed, effect on crop grade [22] | G: wild oat, weedkilling efficacy grade [23] | H: black-grass, weedkilling efficacy grade [24] | also measured
1 | CCc1cc(F)nc(NC(=O)C(C)(C)N2COCN(c3ccccc3)C2=O)c1 [A-2-21] | 4 (weed kill ratio 70% or more, less than 90%) | 5 (weed kill ratio 90% or more, (practically complete withering)) | 2 (weed kill ratio 20% or more, less than 40%) | 1 (weed kill ratio 5% or more, less than 20%) | 0 (weed kill ratio 5% or less (practically no effect)) | 5 (weed kill ratio 90% or more, (practically complete withering)) | 4 (weed kill ratio 70% or more, less than 90%) | 5 (weed kill ratio 90% or more, (practically complete withering)) | 5 (weed kill ratio 90% or more, (practically complete withering)) | 5 (weed kill ratio 90% or more, (practically complete withering)) | 5 (weed kill ratio 90% or more, (practically complete withering)) | 5 (weed kill ratio 90% or more, (practically complete withering)) | 0 (weed kill ratio 5% or less (practically no effect)) | 4 (weed kill ratio 70% or more, less than 90%) | 5 (weed kill ratio 90% or more, (practically complete withering)) | 5 (weed kill ratio 90% or more, (practically complete withering)) | 3 (weed kill ratio 40% or more, less than 70%) | 4 (weed kill ratio 70% or more, less than 90%) | 5 (weed kill ratio 90% or more, (practically complete withering)) | 5 (weed kill ratio 90% or more, (practically complete withering)) | B: bulrush, weed kill grade ([5]; treatment dosage 320 g/ha): 5 (weed kill ratio 90% or more, (practically complete withering)); A (barnyard grass) weedkilling efficacy grade ([10]; treatment dosage 320 g/ha): 5 (weed kill ratio 90% or more, (practically complete withering)); C: oval-leafed pondweed, weed kill grade ([20]; treatment dosage 320 g/ha): 5 (weed kill ratio 90% or more, (practically complete withering)); C (oval-leafed pondweed) weedkilling efficacy grade ([21]; treatment dosage 320 g/ha): 5 (weed kill ratio 90% or more, (practically complete withering)); a: transplanted rice, effect on crop grade ([25]; treatment dosage 320 g/ha): 5 (weed kill ratio 90% or more, (practically complete withering)); A: barnyard grass, weed kill grade ([26]; treatment dosage 320 g/ha): 5 (weed kill ratio 90% or more, (practically complete withering))
2 | CC(C)(C(=O)Nc1cc(Cl)cc(-c2ccccc2)n1)N1COCN(c2ccccc2)C1=O [A-2-31] | 0 (weed kill ratio 5% or less (practically no effect)) | 5 (weed kill ratio 90% or more, (practically complete withering)) | 0 (weed kill ratio 5% or less (practically no effect)) | 0 (weed kill ratio 5% or less (practically no effect)) | 0 (weed kill ratio 5% or less (practically no effect)) | 4 (weed kill ratio 70% or more, less than 90%) | 3 (weed kill ratio 40% or more, less than 70%) | 3 (weed kill ratio 40% or more, less than 70%) | 2 (weed kill ratio 20% or more, less than 40%) | 2 (weed kill ratio 20% or more, less than 40%) | 1 (weed kill ratio 5% or more, less than 20%) | 2 (weed kill ratio 20% or more, less than 40%) | 0 (weed kill ratio 5% or less (practically no effect)) | 3 (weed kill ratio 40% or more, less than 70%) | 2 (weed kill ratio 20% or more, less than 40%) | 0 (weed kill ratio 5% or less (practically no effect)) | 0 (weed kill ratio 5% or less (practically no effect)) | 0 (weed kill ratio 5% or less (practically no effect)) | 2 (weed kill ratio 20% or more, less than 40%) | 3 (weed kill ratio 40% or more, less than 70%) | B: bulrush, weed kill grade ([5]; treatment dosage 320 g/ha): 5 (weed kill ratio 90% or more, (practically complete withering)); A (barnyard grass) weedkilling efficacy grade ([10]; treatment dosage 320 g/ha): 5 (weed kill ratio 90% or more, (practically complete withering)); C: oval-leafed pondweed, weed kill grade ([20]; treatment dosage 320 g/ha): 5 (weed kill ratio 90% or more, (practically complete withering)); C (oval-leafed pondweed) weedkilling efficacy grade ([21]; treatment dosage 320 g/ha): 4 (weed kill ratio 70% or more, less than 90%); a: transplanted rice, effect on crop grade ([25]; treatment dosage 320 g/ha): 0 (weed kill ratio 5% or less (practically no effect)); A: barnyard grass, weed kill grade ([26]; treatment dosage 320 g/ha): 5 (weed kill ratio 90% or more, (practically complete withering))
3 | CC(C)(C(=O)Nc1cc(Cl)cc(F)n1)N1COCN(c2ccccc2)C1=O [A-2-15] | 4 (weed kill ratio 70% or more, less than 90%) |  | 4 (weed kill ratio 70% or more, less than 90%) | 4 (weed kill ratio 70% or more, less than 90%) | 3 (weed kill ratio 40% or more, less than 70%) | 5 (weed kill ratio 90% or more, (practically complete withering)) | 5 (weed kill ratio 90% or more, (practically complete withering)) | 5 (weed kill ratio 90% or more, (practically complete withering)) | 5 (weed kill ratio 90% or more, (practically complete withering)) | 5 (weed kill ratio 90% or more, (practically complete withering)) | 5 (weed kill ratio 90% or more, (practically complete withering)) | 5 (weed kill ratio 90% or more, (practically complete withering)) | 4 (weed kill ratio 70% or more, less than 90%) | 5 (weed kill ratio 90% or more, (practically complete withering)) | 4 (weed kill ratio 70% or more, less than 90%) | 5 (weed kill ratio 90% or more, (practically complete withering)) | 3 (weed kill ratio 40% or more, less than 70%) | 4 (weed kill ratio 70% or more, less than 90%) | 5 (weed kill ratio 90% or more, (practically complete withering)) | 5 (weed kill ratio 90% or more, (practically complete withering)) | B (bulrush) weedkilling efficacy grade ([2]; treatment dosage 280 g/ha): 5 (weed kill ratio 90% or more, (practically complete withering)); B: bulrush, weed kill grade ([5]; treatment dosage 280 g/ha): 5 (weed kill ratio 90% or more, (practically complete withering)); A (barnyard grass) weedkilling efficacy grade ([10]; treatment dosage 280 g/ha): 5 (weed kill ratio 90% or more, (practically complete withering)); C: oval-leafed pondweed, weed kill grade ([20]; treatment dosage 280 g/ha): 5 (weed kill ratio 90% or more, (practically complete withering)); C (oval-leafed pondweed) weedkilling efficacy grade ([21]; treatment dosage 280 g/ha): 5 (weed kill ratio 90% or more, (practically complete withering)); a: transplanted rice, effect on crop grade ([25]; treatment dosage 280 g/ha): 4 (weed kill ratio 70% or more, less than 90%); A: barnyard grass, weed kill grade ([26]; treatment dosage 280 g/ha): 5 (weed kill ratio 90% or more, (practically complete withering))
